Results reported in patent US20010018071A1, “Oral 2-methyl-thieno-benzodiazepine formulation” (priority 1995, published 2001).

Columns and labels:
[1] = Polymorph stability and transformation; assay type: physicochemical; details: for polymorph stability: anhydrous crystal forms
Text: Unfortunately, anhydrous Form II olanzapine is metastable and is therefore not well suited for commercial use in pharmaceutical formulations. Applicants have discovered that the pharmaceutically elegant anhydrous Form I olanzapine can be formulated in its substantially pure form as a stable solid oral preparation. Such formulation provides assurance of a uniform pharmaceutically elegant product substantially free of Form II impurity in order to comply with regulatory requirements.
Further certain excipients exacerbate physical instability. For commercial pharmaceutical development and compliance with regulatory guidelines, it is important to assure that marketed formulations comprise a uniform pharmaceutically elegant substantially pure anyhydrous Form I 2-methyl-4-(4-methyl-1-piperazinyl)-10H-thieno[2,3-b] [1,5] benzodiazepine compound as the active ingredient and most preferably the formulation is free from undesired discolorations.
(§1) The Form I 2-methyl-4-(4-methyl-1-piperazinyl)-10H-thieno[2,3-b]

[2] = Detection of radiolabelled compound in saliva; assay type: in vivo
Method: The anhydrous Form I 2-methyl-4-(4-methyl-1-piperazinyl)-10H-thieno-[2,3-b][1,5]benzodiazepine compound is effective over a wide dosage range, the actual dose administered being dependent on the condition being treated. For example, in the treatment of adult humans, dosages of from about 0.25 to 50 mg, preferably from 1 to 30 mg, and most preferably 1 to 20 mg per day may be used. A once a day dosage is normally sufficient, although divided doses may be administered. For treatment of central nervous system disorders, a dose range of from 1 to 30 mg, preferably 1 to 20 mg per day is suitable. Radiolabelled Form I 2-methyl-4-(4-methyl-1-piperazinyl)-10H-thieno-[2,3-b]

[3] = Discoloration of olanzapine on contact with excipients; assay type: physicochemical
Text: Further, the discoloration was exacerbated by ambient air conditions, at elevated temperatures, and by moist environments.
as §1

Cc1cc2c(s1)Nc1ccccc1N=C2N1CCN(C)CC1 [Form I olanzapine, 2-methyl-4-(4-methyl-1-piperazinyl)-10H-thieno[2,3-b][1,5] benzodiazepine]
polymorph stability [1]: most stable known form
polymorphic conversion ([1]; contact with methylene chloride): can be converted to the less desirable polymorphic forms

Cc1cc2c(s1)Nc1ccccc1N=C2N1CCN(C)CC1 [anhydrous Form II olanzapine, 2-methyl-4-(4-methyl-1-piperazinyl)-10H-thieno[2,3-b][1,5] benzodiazepine]
polymorph stability [1]: metastable

Cc1cc2c(s1)Nc1ccccc1N=C2N1CCN(C)CC1 [2-methyl-4-(4-methyl-1-piperazinyl)-10H-thieno-[2,3-b] [1,5]benzodiazepine]
detection in saliva [2]: can be detected in the saliva

Cc1cc2c(s1)Nc1ccccc1N=C2N1CCN(C)CC1 [olanzapine, 2-methyl-4-(4-methyl-1-piperazinyl)-10H-thieno[2,3-b][1,5] benzodiazepine]
discoloration ([3]; contacted with certain excipients including powder blends): undergoes undesirable discoloration
discoloration ([3]; polyethylene glycol contact, particularly under moist conditions): produces undesired discoloration
